Data published in patent US20140120088A1, “AGENTS FOR THE TREATMENT OF TUMORS” (Assistance Publique-Hopitaux de Paris, priority 2011, published 2014).

Test system: high-grade glioma with subarachnoid extension
Experiment: treatment of patients with high-grade glioma with subarachnoid extension
Type: in vivo, human
Conditions: responding patients; before the combined treatment, under bevacizumab alone, or when intrathecal CpG was resumed
Procedure: Four patients had high-grade glioma with subarachnoid extension. The treatment protocol of patients was as follows:
Subcutaneous injection of 0.3 mg/kg of CpG-ODN at D0, D7, D14, D21 et D28 (capped at 25 mg per injection, for patients>83 kg)
Intrathecal administration of CpG-ODN (7 mg) (in the cerebrospinal fluid) three times, with a two-week interval between each injection (D0, D14 and D28). (In 2 patients, the intrathecal injections were continued every 2 to 4 weeks for several months). (Other intrathecal injections of larger amounts of CpG-ODN (14 mg or 17 mg), again in three steps with a two weeks interval between each injection are currently tested, in other patients in a clinical trial.)
Intravenous perfusions of Avastin from 5 to 10 mg/kg every 2 weeks, started, depending on the cases, before, during or after the beginning of CpG-ODN.

Substance	clinical outcome under single agent or on resuming the combination
5′-TAAACGTTATAACGTTATGACGTCAT-3′ [CpG]	only a slight improvement
Bevacizumab: monoclonal antibody directed against VEGF, marketed by Roche under the name of Avastin	progression
